Counter-ions that a name gives are not always drawn.
Tests used:
[1] = system: H1975 cell; test: In vitro combination study with Dasatinib on H1975 cell; type: cell-based; settings: 0.2 μM of Dasatinib, 8 μM or 40 μM of Example 1, 40 μM or 200 μM of Example 104
Description: (§1) A549, H1975 (CRL5908, ATCC) or U937 cell (CRL1593.2™, ATCC) lines were cultured in RPMI 1640 media (Lifetechnologies, CA) with supplement of 10% FBS and antibiotic-antimycotic (Lifetechnologies, CA). Dasatinib (Combi-Blocks, San Diego, Calif.) is Bcr-Abl-tyrosine kinase inhibitor and Src family tyrosine kinase inhibitor approved for CML treatment. GDC094 (Selleckchem, Houston, Tex.) is a pan-PI3K inhibitor and effective in various cancer cells. H1975 or A549 cells were dissociated from culture plate using 0.5% trypsin-EDTA (Lifetechnologies, CA) and were suspended. U937 cells were spun down using centrifugation. […]
(§2) Among four concentrations of the compounds of present invention, the highest concentration was set to IC80 and the lowest concentration was approximately IC30. […] 100 μl of DMSO was added after removing MTT solution from each well, and were read by VICTOR X3 Multilabel Counter at the wavelength of 550 nm.
(§3) For the analysis of U937 cell viability, 20 μl of Celltiter96® AQueous one solution (MTS, Promega, Madison, Wis.) were added to each well, and plates were incubated at 37° C. and 5% CO2. After 2 hours later, plates read by VICTOR X3 Multilabel Counter at the wavelength of 490 nm. The combination index (CI value) was calculated using Calcusyn (Biosoft, UK).

[2] = system: SK-MEL-239 tumor cells; test: In vivo xenograft model using SK-MEL-239 cell; set-up: species or system mice
Description: The compounds of the present invention were evaluated in vivo using xenograft human cancer model in mice. The compounds of invention were administrated orally or interperitoneal injection. Tumor cell lines were cultured in vitro as monolayer culture. Using female BALB/c nude mice with immune system compromised, each mouse was inoculated subcutaneously at the right flank with tumor cells for tumor development. The treatment was started when the tumor size reaches approximately 100 mm^3
The SK-MEL-239 tumor cell line was maintained in vitro as monolayer in RPMII 640 medium supplemented with 10% heat inactivated fetal bovine serum, 100 U/ml penicillin and 100 μg/ml streptomycin, and L-glutamine (2 mM) at 37° C. in an atmosphere of 5% CO2 in air. The tumor cells were routinely subcultured twice weekly with 0.5% trypsin-EDTA treatment. The cells growing in an exponential growth phase were harvested and counted for tumor cell inoculation.
Female BALB/c nude mice aged 6-8 weeks and weighing approximately 18-22 g were purchased from Vital River. Each mouse was inoculated subcutaneously at the right flank with SK-MEL-239 tumor cells (1×10^7) in 0.1 ml of PBS for tumor development. The treatment was started, when the tumor size reaches approximately 100 mm^3. 100 mg/kg of Phenformin and 15 mg/kg of Vemurafenib were administered via oral gavage twice daily and 100 mg/kg HLPOI (HL176001001) was administered once daily for 21 days. Tumor volumes were measured twice a week in two dimensions using a caliper, and the volume was expressed in mm^3 using the formula: V=0.5×a×b^2, where a and b were the long and short diameters of the tumor, respectively. The T/C value (in percentage) was an indication of antitumor effect. T and C were the mean volumes of the treated and control groups, respectively.

[3] = system: U937 cell; test: In vitro combination study with GDC0941 on U937 cell; type: cell-based
Description: as §1, §2, §3

[4] = system: A549 cells; test: Inhibition of OCR (XF Analyzer); type: cell-based; settings: Homo sapiens, A549, 24 h
In short: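 A549 cells pretreated with compound in serum-free RPMI for 23 h, then switched to pH 7.4 XF medium with 15 mM glucose, 15 mM pyruvate, 4 mM glutamine plus compound. Oxygen consumption measured by Seahorse XF after 1 h equilibration; IC50 from OCR inhibition curves, checked against CyQuant cytotoxicity.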

[5] = system: A549 cells; test: In vitro combination study with Dasatinib on A549 cell; type: cell-based; settings: in combination with 0.05 μM of Dasatinib, 72-hour treatment
Description: as §1, §2, §3

[6] = Dosing 100 mg/kg, once daily, Day 28

Q: What does the source list for `N=C(N)NC(=N)NCCc1ccc(Cl)c(Cl)c1` [Example 1, N-1-(3,4-dichloro)phenethylbiguanide hydrochloride]?
A: combination therapy effect with Dasatinib [1]: low combination therapy effect; tumor volume compared to the control group ([2]; 100 mg/kg, Phenformin twice daily, Example 1 once daily): significant reduction of tumor volume; T/C (Day 28, %) [2, 6]: 65.4%; Tumor Volume (Day 28, mm^3, a) [2, 6]: 1,869 ± 82 mm^3; tumor volume compared to the single administration of Vemurafenib ([2]; in combination with 15 mg/kg of Vemurafenib): reduced the tumor volume; CI value (combination index) [3]: lower than 1; IC50 [4]: > 5 µM; CI value (combination index) [5]: 0.289

Source: US11465989B2, “Guanidine compounds and use thereof” (IMMUNOMET THERAPEUTICS INC., priority 2014, dated 2022)
